Reference: patent US12503439B2, “Heteroaryl compounds for the treatment of pain” (VERTEX PHARMACEUTICALS INCORPORATED, priority 2022, dated 2025)

Target: truncated form of human NaV 1.8 with full channel activity (expressed in HEK cells) (Homo sapiens, UniProt Q9Y5Y9)
Assay: E-VIPR assay detecting and measuring NaV inhibition properties (electrical stimulation, membrane potential FRET dyes)
Type: cell-based
Details: HEK cells expressing truncated human NaV 1.8, KIR2.1 BacMam; 11-point dose response; 30 min compound incubation; stimulation 10 Hz for 10 s; read-out: measured IC50 value in the E-VIPR Assay
Description: E-VIPR Assay Detecting and Measuring NaV Inhibition Properties
Sodium ion channels are voltage-dependent proteins that can be activated by inducing membrane voltage changes by applying electric fields. […] The instrument comprises a microtiter plate handler, an optical system for exciting the coumarin dye while simultaneously recording the coumarin and oxonol emissions, a waveform generator, a current- or voltage-controlled amplifier, and parallel electrode pairs that are inserted into assay plate wells. Under integrated computer control, this instrument passes user-programmed electrical stimulus protocols to cells within the wells of the microtiter plate.
16-20 hours prior to running the assay on E-VIPR, HEK cells expressing a truncated form of human NaV 1.8 with full channel activity were seeded into microtiter 384-well plates, pre-coated with matrigel, at a density of 25,000 cells per well. 2.5-5% KIR2.1 BacMam virus was added to the final cell suspension before seeding into cell plates. […] Cells were expanded in 5-layer CellSTACK culture chambers or cell culture flasks with vented caps, with 90-95% humidity and 5% CO2.
Reagents and Stock Solutions:
The concentration used can be dependent on viral titer of each batch.
Human Serum (HS, Millipore #S1P1-01KL, or Sigma SLBR5469V and SLBR5470V as a 50%/50% mixture, for 25% assay final concentration)
Hexyl Dye Solution (2× Concentration):
Bath 1 Buffer containing 0.5% β-cyclodextrin (made fresh prior to each use, Sigma #C4767), 8 μM CC2-DMPE and 2 μM DiSBAC6(3). The solution was made by adding 10% Pluronic F127 stock equal to combined volumes of CC2-DMPE and DiSBAC6(3). The order of preparation was first mix Pluronic and CC2-DMPE, then add DiSBAC6(3), then while vortexing add Bath 1/β-Cyclodextrin.
Assay Protocol (7 Key Steps):
The compound plate was backfilled with 45 μL per well of Compound Loading Buffer resulting in a 240-fold dilution of compound following a 1:1 transfer of compound into the cell plate (see Step 6). […] This assay dilution protocol was adjusted to enable a higher dose range to be tested in the presence of HS or if the final assay volume was altered. • 2) Hexyl Dye Solution was prepared. • 3) Cell plates were prepared. On the day of the assay, the media was aspirated, and the cells were washed three times with 80 μL of Bath-1 buffer, maintaining 25 μL residual volume in each well. • 4) 25 μL per well of Hexyl Dye Solution was dispensed into the cell plates. The cells were incubated for 20 minutes at room temperature or ambient conditions in darkness. • 5) 45 μL per well of Compound Loading Buffer was dispensed into compound plates. • 6) The cell plates were washed three times with 80 μL per well of Bath-1 Buffer, leaving […] of residual volume. Then 25 μL per well from compound plate was transferred to each cell plate. The mixture was incubated for 30 minutes at room temperature/ambient conditions. • 7) The cell plate containing compound was read on E-VIPR using the current-controlled amplifier to deliver stimulation wave pulses using a symmetrical biphasic waveform. […] A pre-stimulus recording was performed for each well for 0.5 seconds to obtain the un-stimulated intensities baseline. The stimulatory waveform was followed by 0.5 seconds of post-stimulation recording to examine the relaxation to the resting state. All E-VIPR responses were measured at 200 Hz acquisition rate. Data Analysis:
The response as a function of time was reported as the ratios obtained using the following formula: […]
The data were normalized by calculating the initial (Ri) and final (Rf) ratios. These were the average ratio values during part or all of the pre-stimulation period and during sample points during the stimulation period. The fluorescence ratio (Rf/Ri) was then calculated and reported as a function of time.
Control responses were obtained by performing assays in the presence of the positive control, and in the absence of pharmacological agents (DMSO vehicle negative control).

truncated form of human NaV 1.8 with full channel activity (expressed in HEK cells), sequence (Q9Y5Y9 126-1722 limits assumed): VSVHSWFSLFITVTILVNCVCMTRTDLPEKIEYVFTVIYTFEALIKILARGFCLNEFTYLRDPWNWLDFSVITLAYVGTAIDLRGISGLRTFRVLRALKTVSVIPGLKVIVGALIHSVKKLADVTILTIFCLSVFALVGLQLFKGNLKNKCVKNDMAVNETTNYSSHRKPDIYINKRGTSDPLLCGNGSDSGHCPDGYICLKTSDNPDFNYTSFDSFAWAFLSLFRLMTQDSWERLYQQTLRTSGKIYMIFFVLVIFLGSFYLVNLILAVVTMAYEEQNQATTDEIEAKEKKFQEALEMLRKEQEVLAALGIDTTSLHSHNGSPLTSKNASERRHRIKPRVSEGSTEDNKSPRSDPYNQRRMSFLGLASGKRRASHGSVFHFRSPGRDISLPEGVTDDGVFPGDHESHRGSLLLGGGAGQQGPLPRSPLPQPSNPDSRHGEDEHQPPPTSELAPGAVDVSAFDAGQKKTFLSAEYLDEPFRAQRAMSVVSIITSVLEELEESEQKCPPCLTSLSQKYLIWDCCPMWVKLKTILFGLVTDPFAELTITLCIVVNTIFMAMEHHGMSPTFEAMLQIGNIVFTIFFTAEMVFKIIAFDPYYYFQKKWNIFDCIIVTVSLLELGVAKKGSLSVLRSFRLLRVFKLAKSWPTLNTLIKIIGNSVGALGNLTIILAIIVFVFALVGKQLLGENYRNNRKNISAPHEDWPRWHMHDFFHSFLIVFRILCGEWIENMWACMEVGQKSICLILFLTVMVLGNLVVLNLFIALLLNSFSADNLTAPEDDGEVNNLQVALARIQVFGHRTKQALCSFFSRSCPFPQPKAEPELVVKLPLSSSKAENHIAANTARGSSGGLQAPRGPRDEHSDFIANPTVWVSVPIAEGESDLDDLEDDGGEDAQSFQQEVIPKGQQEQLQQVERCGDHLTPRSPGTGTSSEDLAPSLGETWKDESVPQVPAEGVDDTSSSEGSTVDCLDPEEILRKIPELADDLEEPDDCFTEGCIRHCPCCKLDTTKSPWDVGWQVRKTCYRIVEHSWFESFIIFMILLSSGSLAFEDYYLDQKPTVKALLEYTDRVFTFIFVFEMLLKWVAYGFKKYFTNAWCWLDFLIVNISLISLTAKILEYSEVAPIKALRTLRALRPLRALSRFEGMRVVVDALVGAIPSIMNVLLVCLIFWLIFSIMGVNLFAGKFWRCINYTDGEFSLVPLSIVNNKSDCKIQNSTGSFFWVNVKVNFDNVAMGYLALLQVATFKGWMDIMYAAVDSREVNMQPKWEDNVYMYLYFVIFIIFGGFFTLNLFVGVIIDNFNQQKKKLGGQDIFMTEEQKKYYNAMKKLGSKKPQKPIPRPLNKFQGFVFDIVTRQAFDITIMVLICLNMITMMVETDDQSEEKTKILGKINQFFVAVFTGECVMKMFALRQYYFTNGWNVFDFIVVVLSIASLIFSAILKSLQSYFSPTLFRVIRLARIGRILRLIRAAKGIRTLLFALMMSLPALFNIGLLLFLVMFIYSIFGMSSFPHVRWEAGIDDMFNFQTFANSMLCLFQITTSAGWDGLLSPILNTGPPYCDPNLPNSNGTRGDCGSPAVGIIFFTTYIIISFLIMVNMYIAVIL

Row | SMILES | IC50
1 | COc1cc(F)ccc1Oc1cc(C(C)(C)C)cc(C)c1-c1nc(=O)c2ccccc2[nH]1 [Compound 28, 2-[4-tert-butyl-2-(4-fluoro-2-methoxy-phenoxy)-6-methyl-phenyl]-1H-quinazolin-4-one] | 0.5 to 2 µM
2 | O=c1cc(-c2ccccc2OCc2cccc(F)c2)[nH]c2ccccc12 [Compound 4, 2-[2-[(3-fluorophenyl)methoxy]phenyl]-1H-quinolin-4-one] | 0.5 to 2 µM
3 | COc1cc(F)ccc1Oc1cc(C(C)(C)C)cc(C)c1-c1[nH]c2ccccc2c(=O)c1C (single isomer, unassigned) [Compound 334, 2-[4-tert-butyl-2-(4-fluoro-2-methoxy-phenoxy)-6-methyl-phenyl]-3-methyl-1H-quinolin-4-one] | 2 to 5 µM
4 | O=c1[nH]c(-c2nc(C(F)(F)F)ccc2N2CCCC(F)(F)CC2)nc2ccccc12 [Compound 153, 2-[3-(4,4-difluoroazepan-1-yl)-6-(trifluoromethyl)-2-pyridyl]-3H-quinazolin-4-one] | ≥ 5 µM
5 | COc1cc(F)ccc1Oc1cc(C(C)(C)C)cc(C)c1-c1[nH]c2ccccc2c(=O)c1Br (single isomer, unassigned) [Compound 320, 3-bromo-2-[4-tert-butyl-2-(4-fluoro-2-methoxy-phenoxy)-6-methyl-phenyl]-1H-quinolin-4-one] | 0.5 to 2 µM
6 | COc1cc(F)ccc1Oc1cc(C(C)(C)C)cc(C)c1-c1[nH]c2ccccc2c(=O)c1Cl (single isomer, unassigned) [Compound 312, 2-[4-tert-butyl-2-(4-fluoro-2-methoxy-phenoxy)-6-methyl-phenyl]-3-chloro-1H-quinolin-4-one] | 0.5 to 2 µM
7 | Cc1c(Oc2ncc(C(F)(F)F)c(C)c2-c2cc(=O)c3c(N4CC(O)C4)nccc3[nH]2)ccc(F)c1F [Compound 179, 2-[2-(3,4-difluoro-2-methyl-phenoxy)-4-methyl-5-(trifluoromethyl)-3-pyridyl]-5-(3-hydroxyazetidin-1-yl)-1H-1,6-naphthyridin-4-one] | 0.5 to 2 µM
8 | CCN(c1nc2ccccc2cc1-c1cc(=O)c2c(C(N)=O)nccc2[nH]1)C1CCC1 [Compound 303, 2-[2-[cyclobutyl(ethyl)amino]-3-quinolyl]-4-oxo-1H-1,6-naphthyridine-5-carboxamide] | ≥ 5 µM
9 | C=C(C)c1c(-c2c(C)cc(C(C)(C)C)cc2Oc2ccc(F)cc2OC)[nH]c2ccccc2c1=O (single isomer, unassigned) [Compound 331, 2-[4-tert-butyl-2-(4-fluoro-2-methoxy-phenoxy)-6-methyl-phenyl]-3-isopropenyl-1H-quinolin-4-one] | 0.5 to 2 µM
10 | Cc1c(Oc2ncc(C(F)(F)F)c(C)c2-c2cc(=O)c3c(NC(C)(C)CO)nccc3[nH]2)ccc(F)c1F [Compound 170, 2-[2-(3,4-difluoro-2-methyl-phenoxy)-4-methyl-5-(trifluoromethyl)-3-pyridyl]-5-[(2-hydroxy-1,1-dimethyl-ethyl)amino]-1H-1,6-naphthyridin-4-one] | 0.5 to 2 µM
11 | O=c1cc(-c2ccccc2OCC2CC2)[nH]c2ccccc12 [Compound 2, 2-[2-(cyclopropylmethoxy)phenyl]-1H-quinolin-4-one] | ≥ 5 µM
12 | COc1cc(F)ccc1Oc1cc(C(C)(C)C)cc(C)c1-c1cc(=O)n2ccccc2n1 [Compound 37, 2-[4-tert-butyl-2-(4-fluoro-2-methoxy-phenoxy)-6-methyl-phenyl]pyrido[1,2-a]pyrimidin-4-one] | ≥ 5 µM
13 | Cc1c(C(F)(F)F)cnc(Oc2ccc(F)c(F)c2CO)c1-c1cc(=O)c2c(C(N)=O)nccc2[nH]1 [Compound 346, 2-[2-[3,4-difluoro-2-(hydroxymethyl)phenoxy]-4-methyl-5-(trifluoromethyl)-3-pyridyl]-4-oxo-1H-1,6-naphthyridine-5-carboxamide] | 0.5 to 2 µM
14 | COC1CCC(c2cc(C(C)(C)C)ncc2-c2cc(=O)c3c(C(N)=O)nccc3[nH]2)CC1 (stereo not drawn) [Compound 133, 2-[6-tert-butyl-4-(4-methoxycyclohexyl)-3-pyridyl]-4-oxo-1H-1,6-naphthyridine-5-carboxamide] | 0.5 to 2 µM
15 | COc1cc(F)ccc1Oc1cc(C(C)(C)C)cc(C)c1-c1cc(=O)c2cccc(C)c2[nH]1 [Compound 32, 2-[4-tert-butyl-2-(4-fluoro-2-methoxy-phenoxy)-6-methyl-phenyl]-8-methyl-1H-quinolin-4-one] | 0.5 to 2 µM
16 | NC(=O)c1nccc2[nH]c(-c3cc(F)c(C(F)(F)F)cc3Oc3ccc(F)c(F)c3O)cc(=O)c12 [Compound 347, 2-[2-(3,4-difluoro-2-hydroxy-phenoxy)-5-fluoro-4-(trifluoromethyl)phenyl]-4-oxo-1H-1,6-naphthyridine-5-carboxamide] | 0.5 to 2 µM
17 | Cc1c(Oc2ncc(C(F)(F)F)c(C)c2-c2cc(=O)c3c(N4Cc5cn[nH]c5C4)nccc3[nH]2)ccc(F)c1F [Compound 175, 2-[2-(3,4-difluoro-2-methyl-phenoxy)-4-methyl-5-(trifluoromethyl)-3-pyridyl]-5-(4,6-dihydro-1H-pyrrolo[3,4-c]pyrazol-5-yl)-1H-1,6-naphthyridin-4-one] | 0.5 to 2 µM
18 | O=c1cc(-c2cc(C(F)(F)F)ncc2[C@H]2CC[C@H](C(F)(F)F)CC2)[nH]c2ccncc12 [Compound 305, 2-[2-(trifluoromethyl)-5-[4-(trifluoromethyl)cyclohexyl]-4-pyridyl]-1H-1,6-naphthyridin-4-one] | ≥ 5 µM
19 | CC(C)(C)n1cc(-c2cc(=O)c3c(C(N)=O)nccc3[nH]2)c(C2CCC(F)(F)CC2)n1 [Compound 138, 2-[1-tert-butyl-3-(4,4-difluorocyclohexyl)pyrazol-4-yl]-4-oxo-1H-1,6-naphthyridine-5-carboxamide] | 0.5 to 2 µM
20 | Cc1cc(-c2cc(=O)c3c(C)nccc3[nH]2)c(N2CCCC(F)(F)CC2)nc1C(F)(F)F [Compound 193, 2-[2-(4,4-difluoroazepan-1-yl)-5-methyl-6-(trifluoromethyl)-3-pyridyl]-5-methyl-1H-1,6-naphthyridin-4-one] | ≥ 5 µM
21 | O=c1cc(-c2ccccc2OCc2ccc(F)cc2)[nH]c2ccccc12 [Compound 6, 2-[2-[(4-fluorophenyl)methoxy]phenyl]-1H-quinolin-4-one] | 2 to 5 µM
22 | O=c1cc(-c2cc(Cl)c(C(F)(F)F)nc2N2CCCC(F)(F)CC2)[nH]c2c(F)cccc12 [Compound 95, 2-[5-chloro-2-(4,4-difluoroazepan-1-yl)-6-(trifluoromethyl)-3-pyridyl]-8-fluoro-1H-quinolin-4-one] | 0.5 to 2 µM
23 | O=c1cc(-c2ccccc2OCc2ccccc2)[nH]c2ccccc12 [Compound 3, 2-(2-benzyloxyphenyl)-1H-quinolin-4-one] | 0.5 to 2 µM
24 | COc1cc(F)ccc1Oc1cc(C(C)(C)C)cc(C)c1-c1nc2cccc(F)c2c(=O)[nH]1 [Compound 38, 2-[4-tert-butyl-2-(4-fluoro-2-methoxy-phenoxy)-6-methyl-phenyl]-5-fluoro-3H-quinazolin-4-one] | 0.5 to 2 µM
25 | N#Cc1nccc2[nH]c(-c3cc4ccccc4nc3N3CCC(F)(F)C3)cc(=O)c12 [Compound 282, 2-[2-(3,3-difluoropyrrolidin-1-yl)-3-quinolyl]-4-oxo-1H-1,6-naphthyridine-5-carbonitrile] | 0.5 to 2 µM
26 | O=c1cc(-c2ccccc2C2CC2)[nH]c2ccccc12 [Compound 1, 2-(2-cyclopropylphenyl)-1H-quinolin-4-one] | ≥ 5 µM
27 | NC(=O)c1nccc2[nH]c(-c3cc4ccccc4nc3N3CCC(F)(F)C3)cc(=O)c12 [Compound 281, 2-[2-(3,3-difluoropyrrolidin-1-yl)-3-quinolyl]-4-oxo-1H-1,6-naphthyridine-5-carboxamide] | 0.5 to 2 µM
